# Data published in US12692262B2, “Substituted ureas as orexin receptor agonists” (Merck Sharp & Dohme LLC, priority 2020, dated 2026).
# Biological target: T1, human OX2R (Homo sapiens, UniProt O43614)
# T1 construct: expressed in transfected cells; host or cells: CHO (Chinese hamster ovary) cells grown under G418 selection
# T1 sequence (O43614 1-444): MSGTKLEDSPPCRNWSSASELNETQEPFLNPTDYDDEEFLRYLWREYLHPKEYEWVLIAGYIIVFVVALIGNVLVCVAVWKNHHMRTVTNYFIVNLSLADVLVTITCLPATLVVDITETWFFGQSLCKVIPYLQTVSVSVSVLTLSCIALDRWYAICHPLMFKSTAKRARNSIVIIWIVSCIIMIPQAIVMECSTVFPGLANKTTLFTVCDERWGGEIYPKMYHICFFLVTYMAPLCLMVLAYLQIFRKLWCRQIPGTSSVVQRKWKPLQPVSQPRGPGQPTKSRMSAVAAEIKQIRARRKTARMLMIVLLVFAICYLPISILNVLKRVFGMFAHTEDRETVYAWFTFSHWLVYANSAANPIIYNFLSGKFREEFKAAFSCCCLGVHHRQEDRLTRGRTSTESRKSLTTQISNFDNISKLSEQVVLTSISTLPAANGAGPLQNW
# Assay: IPOne (IP-1 accumulation) assay in CHO cells expressing human OX2R
# Assay type: cell-based
# Conditions: for EC50: CHO cells expressing human OX2R, IP-One assay, 2 h incubation, four parameter logistic fit, read-out: OX2R Potency, EC50; for % of maximum agonist effect (relative to Orexin A): percent effect vs mean max effect of a reference compound at 1 uM (100% activity vs Orexin A), human OX2R
# Description: The utility of the compounds in accordance with the present invention as orexin receptor OX1R and/or OX2R agonists may be readily determined without undue experimentation by methodology well known in the art. Both the OX1R and/or OX2R G-coupled protein receptors (GPCRs) couple through the Gαq signaling pathway, which ultimately promotes calcium mobilization via inositol triphosphate (IP3) production. […] The utility of the compounds in accordance with the present invention as orexin receptor OX1R and/or OX2R agonists may be determined utilizing this assay.
# In a typical experiment, the OX1 and OX2 receptor agonist activity is determined in accordance with the following general experimental method. Chinese hamster ovary (CHO) cells expressing human OX1R and/or the human OX2R were grown in Iscove's modified DMEM containing glutaMAX™, 1% G418, 100 U/mL penicillin, 100 μg/mL streptomycin and 10% heat-inactivated qualified fetal bovine serum (FBS). […] During this incubation, IP-one detection reagents were prepared (38:1:1 lysis buffer:D2:AB-cryptate reagents).
# For each compound, data were fit to a four parameter logistic fit (ActivityBase software) and the EC50 was reported as the inflection point of the resulting curve. […] The intrinsic orexin receptor agonist activity of a compound which may be used in the present invention may be determined by these assays.
Structure (SMILES),EC50 [nM],% of maximum agonist effect (relative to Orexin A) [%]
"CCN(C(=O)N[C@@H](CC1CC1)C(F)(F)F)[C@@H](c1cc(-c2cn3cc(C)nc3c(OC)n2)c(OC)cn1)C(F)(F)F [Example 3-5, 3-((S)-3-cyclopropyl-1,1,1-trifluoropropan-2-yl)-1-ethyl-1-((S)-2,2,2-trifluoro-1-(5-methoxy-4-(8-methoxy-2-methylimidazo[1,2-a]pyrazin-6-yl)pyridin-2-yl)ethyl)urea]",40.5,99.3
"CCN(C(=O)N[C@@H](CCC(F)(F)F)C1CC1)[C@H](C)c1cnc(OC)c(-c2cn3ccnc3c(OC)n2)c1 [Example 12-2, 3-((S)-1-cyclopropyl-4,4,4-trifluorobutyl)-1-ethyl-1-((R)-1-(6-methoxy-5-(8-methoxyimidazo[1,2-a]pyrazin-6-yl)pyridin-3-yl)ethyl)urea]",1.2,100.6
"CCN(C(=O)NC[C@H]1COCC(=O)N1)[C@H](C)c1cccc(-c2cn3ccnc3c(OC)n2)c1 [Example 1-6, 1-ethyl-1-((R)-1-(3-(8-methoxyimidazo[1,2-a]pyrazin-6-yl)phenyl)ethyl)-3-(((S)-5-oxomorpholin-3-yl)methyl)urea]",193,99.0
"CCN(C(=O)N[C@@H](CCC(F)(F)F)C(F)(F)F)[C@@H](c1cc(-c2cc(OC)c3[nH]cnc3c2)c(OC)cn1)C(F)(F)F [Example 10-15, 1-ethyl-3-((S)-1,1,1,5,5,5-hexafluoropentan-2-yl)-1-((S)-2,2,2-trifluoro-1-(5-methoxy-4-(7-methoxy-1H-benzo[d]imidazol-5-yl)pyridin-2-yl)ethyl)urea]",6.4,99.8
"CCN(C(=O)N[C@@H](CC(OC)C(F)(F)F)C(F)(F)F)[C@@H](c1cc(-c2cn3cc(C)nc3c(OC)n2)c(OC)cn1)C(F)(F)F (stereo partly drawn) [Example 2-44, 1-ethyl-3-((2S)-1,1,1,5,5,5-hexafluoro-4-methoxypentan-2-yl)-1-((S)-2,2,2-trifluoro-1-(5-methoxy-4-(8-methoxy-2-methylimidazo[1,2-a]pyrazin-6-yl)pyridin-2-yl)ethyl)urea]",4.8,100.6
"CCN(C(=O)N[C@@H](C1CCCC(F)(F)C1)C(F)(F)F)[C@H](C)c1cccc(-c2cn3ccnc3c(OC)n2)c1 (single isomer, unassigned) [Example 3-1]",0.9,100.8
"CCN(C(=O)NC1CCC1C(F)(F)F)[C@@H](c1cc(-c2cn3ccnc3c(OC)n2)c(OC)cn1)C(F)(F)F (stereo partly drawn) [Example 2-9, 1-ethyl-1-((S)-2,2,2-trifluoro-1-(5-methoxy-4-(8-methoxyimidazo[1,2-a]pyrazin-6-yl)pyridin-2-yl)ethyl)-3-(2-(trifluoromethyl)cyclobutyl)-urea]",20.3,100.0
"CCN(C(=O)NC(CN1CCOC1=O)C(F)(F)F)[C@@H](c1cc(-c2cn3ccnc3c(OC)n2)c(OC)cn1)C(F)(F)F (stereo partly drawn) [Example 2-43, 1-ethyl-1-((S)-2,2,2-trifluoro-1-(5-methoxy-4-(8-methoxyimidazo[1,2-a]pyrazin-6-yl)pyridin-2-yl)ethyl)-3-(1,1,1-trifluoro-3-(2-oxooxazolidin-3-yl)propan-2-yl)urea]",1.1,99.8
"CCN(C(=O)N[C@@H](CCC(F)(F)F)C(F)(F)F)C(c1cc(-c2cn3ccnc3c(OC)n2)c(OC)c(C)n1)C(F)(F)F (stereo partly drawn) [Example 10-6, 1-ethyl-3-((S)-1,1,1,5,5,5-hexafluoropentan-2-yl)-1-(2,2,2-trifluoro-1-(5-methoxy-4-(8-methoxyimidazo[1,2-a]pyrazin-6-yl)-6-methylpyridin-2-yl)ethyl)urea]",9.2,98.9
"CCN(C(=O)N[C@@H]1CC[C@H](C(F)(F)F)C1)[C@H](C)c1cccc(-c2cn3ccnc3c(OC)n2)c1 [Example 1-3, 1-ethyl-1-((R)-1-(3-(8-methoxyimidazo[1,2-a]pyrazin-6-yl)phenyl)ethyl)-3-((1R,3S)-3-(trifluoromethyl)cyclopentyl)urea]",6.5,99.9
"CCN(C(=O)NC(C)C(C)(F)F)[C@@H](c1cc(-c2cn3ccnc3c(OC)n2)c(OC)cn1)C(F)(F)F (stereo partly drawn) [Example 2-40, 3-(3,3-difluorobutan-2-yl)-1-ethyl-1-((S)-2,2,2-trifluoro-1-(5-methoxy-4-(8-methoxyimidazo[1,2-a]pyrazin-6-yl)pyridin-2-yl)ethyl)urea]",15.8,99.3
"CCN(C(=O)N[C@@H](CCC(F)(F)F)C(F)(F)F)[C@H](C)c1cc(-c2cc3ccnn3c(OC)n2)c(OC)cn1 [Example 2-51, 1-ethyl-3-((S)-1,1,1,5,5,5-hexafluoropentan-2-yl)-1-((R)-1-(5-methoxy-4-(7-methoxypyrazolo[1,5-c]pyrimidin-5-yl)pyridin-2-yl)ethyl)urea]",1,98.7
"CC[C@H](CCC(F)(F)F)NC(=O)N(CC)[C@H](C)c1cc(-c2ccc3nccn3c2)c(OC)cc1F [Example 11-2, 1-ethyl-1-((R)-1-(2-fluoro-5-(imidazo[1,2-a]pyridin-6-yl)-4-methoxyphenyl)ethyl)-3-((R)-6,6,6-trifluorohexan-3-yl)urea]",80.5,98.5
"CCN(C(=O)NC(CCC(F)(F)F)C1CCO1)[C@@H](c1cc(-c2cn3ccnc3c(OC)n2)c(OC)cn1)C(F)(F)F (stereo partly drawn) [Example 2-45, 1-ethyl-1-((S)-2,2,2-trifluoro-1-(5-methoxy-4-(8-methoxyimidazo[1,2-a]pyrazin-6-yl)pyridin-2-yl)ethyl)-3-(4,4,4-trifluoro-1-(oxetan-2-yl)butyl)urea]",1.9,99.8
"CCN(C(=O)NC(CC(F)F)C(F)(F)F)[C@H](C)c1cccc(-c2cn3ccnc3c(OC)n2)c1 (stereo partly drawn) [Example 2-52, 1-ethyl-1-((R)-1-(3-(8-methoxyimidazo[1,2-a]pyrazin-6-yl)phenyl)ethyl)-3-(1,1,1,4,4-pentafluorobutan-2-yl)urea]",35.8,100.6
"CCN(C(=O)NC1CC(CC(F)(F)F)C1)[C@@H](c1cc(-c2cn3ccnc3c(OC)n2)c(OC)cn1)C(F)(F)F (stereo partly drawn) [Example 2-30, (S)-1-ethyl-1-(2,2,2-trifluoro-1-(5-methoxy-4-(8-methoxyimidazo[1,2-a]pyrazin-6-yl)pyridin-2-yl)ethyl)-3-(3-(2,2,2-trifluoroethyl)cyclobutyl)urea]",34.6,99.0
"CCc1cc(-c2cc([C@@H](C)N(CC)C(=O)N[C@@H](CCC(F)(F)F)C(F)(F)F)ncc2OC)cc2ccnn12 [Example 9-5, 1-ethyl-1-((R)-1-(4-(7-ethylpyrazolo[1,5-a]pyridin-5-yl)-5-methoxypyridin-2-yl)ethyl)-3-((S)-1,1,1,5,5,5-hexafluoropentan-2-yl)urea]",16.3,99.6
"CCN(C(=O)NC(CC(=O)N(C)C)C(F)(F)F)[C@H](C)c1cccc(-c2cn3ccnc3c(OC)n2)c1 (single isomer, unassigned) [Example 24]",144,89.1
"CCN(C(=O)NC(CCCF)C1CC1)[C@@H](c1cc(-c2cn3cc(C)nc3c(OC)n2)c(OC)cn1)C(F)(F)F (stereo partly drawn) [Example 6-4, 3-(1-cyclopropyl-4-fluorobutyl)-1-ethyl-1-((S)-2,2,2-trifluoro-1-(5-methoxy-4-(8-methoxy-2-methylimidazo[1,2-a]pyrazin-6-yl)pyridin-2-yl)ethyl)urea]",16,100.3
"CCC(NC(=O)N(CC)[C@@H](c1cc(-c2cn3ccnc3c(OC)n2)c(OC)cn1)C(F)(F)F)C(F)F (stereo partly drawn) [Example 2-10, 3-(1,1-difluorobutan-2-yl)-1-ethyl-1-((S)-2,2,2-trifluoro-1-(5-methoxy-4-(8-methoxyimidazo[1,2-a]pyrazin-6-yl)pyridin-2-yl)ethyl)urea]",22.5,98.5
"CCN(C(=O)NC(C1CC(F)(F)CCO1)C(F)(F)F)[C@H](C)c1cccc(-c2cn3ccnc3c(OC)n2)c1 (stereo partly drawn) [Example 2-33, 3-(1-(4,4-difluorotetrahydro-2H-pyran-2-yl)-2,2,2-trifluoroethyl)-1-ethyl-1-((R)-1-(3-(8-methoxyimidazo[1,2-a]pyrazin-6-yl)phenyl)ethyl)urea]",0.8,101.6
